Measurements as given in PubChem BioAssay (NCI).
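Protocol summary: plate cells (96-well), add compound at 5 concentrations, incubate 48 h, interpolate endpoints linearly. GI50 marks 50% less growth. TGI: concentration producing complete growth inhibition.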

Tests used:
Test in all cases: inhibition of tumour cell growth, NCI panel, 48 h
CAKI-1 renal = system: CAKI-1 renal
HCC-2998 colon = system: HCC-2998 colon
HOP-92 NSCLC = system: HOP-92 NSCLC
NCI-H460 lung = system: NCI-H460 lung
OVCAR-5 ovarian = system: OVCAR-5 ovarian
PC-3 prostate = system: PC-3 prostate
SK-MEL-2 melanoma = system: SK-MEL-2 melanoma
TK-10 renal = system: TK-10 renal
UO-31 renal = system: UO-31 renal
NCI-H522 lung = system: NCI-H522 lung

Cn1c2ccccc2c2c(=O)n(CCCC(=O)NCCc3cnc[nH]3)c3c(-c4ccccc4)nnn3c21
GI50 (CAKI-1 renal): 12 µM | TGI (CAKI-1 renal): 33.4 µM | GI50 (HCC-2998 colon): 9.51 µM | TGI (HCC-2998 colon): 19.7 µM | GI50 (HOP-92 NSCLC): 1.35 µM | TGI (HOP-92 NSCLC): 5.48 µM | GI50 (NCI-H460 lung): 10.9 µM | TGI (NCI-H460 lung): 24.3 µM | GI50 (OVCAR-5 ovarian): 10.8 µM | TGI (OVCAR-5 ovarian): 20.3 µM | GI50 (PC-3 prostate): 9.01 µM | TGI (PC-3 prostate): 20.1 µM | GI50 (SK-MEL-2 melanoma): 10.3 µM | TGI (SK-MEL-2 melanoma): 21 µM | GI50 (TK-10 renal): 4.8 µM | TGI (TK-10 renal): 11.5 µM | GI50 (UO-31 renal): 7.46 µM | TGI (UO-31 renal): 14.8 µM

CC(=O)OC(C)(C)C[N+](=O)[O-]
TGI (CAKI-1 renal): > 100 µM | TGI (HCC-2998 colon): > 100 µM | TGI (HOP-92 NSCLC): > 100 µM | TGI (NCI-H460 lung): > 100 µM | TGI (NCI-H522 lung): > 100 µM | TGI (OVCAR-5 ovarian): > 100 µM | TGI (SK-MEL-2 melanoma): > 100 µM | TGI (TK-10 renal): > 100 µM | TGI (UO-31 renal): > 100 µM

Cl.[O-]c1cccc2cccnc12.[O-]c1cccc2cccnc12.[O-]c1cccc2cccnc12.[O-]c1cccc2cccnc12.[Ti+4]
GI50 (CAKI-1 renal): 1.61 µM | TGI (CAKI-1 renal): > 100 µM | GI50 (HCC-2998 colon): 2.1 µM | TGI (HCC-2998 colon): 4.5 µM | GI50 (HOP-92 NSCLC): 15.7 µM | TGI (HOP-92 NSCLC): > 71.7 µM | GI50 (NCI-H460 lung): 1.28 µM | TGI (NCI-H460 lung): 10.2 µM | GI50 (NCI-H522 lung): 0.12 µM | TGI (NCI-H522 lung): 0.256 µM | GI50 (OVCAR-5 ovarian): 2.71 µM | TGI (OVCAR-5 ovarian): 19.5 µM | GI50 (SK-MEL-2 melanoma): 3.32 µM | TGI (SK-MEL-2 melanoma): 26.1 µM | GI50 (TK-10 renal): 53.7 µM | TGI (TK-10 renal): > 100 µM | GI50 (UO-31 renal): 5.59 µM | TGI (UO-31 renal): > 100 µM

Cc1cc(C(=O)CC(Cl)=C(Cl)Cl)c(Cl)cc1Cl
GI50 (CAKI-1 renal): 18 µM | TGI (CAKI-1 renal): 41.4 µM | GI50 (NCI-H460 lung): 23.8 µM | TGI (NCI-H460 lung): 90.6 µM | GI50 (NCI-H522 lung): 22.6 µM | TGI (NCI-H522 lung): 69.4 µM | GI50 (OVCAR-5 ovarian): 29.8 µM | TGI (OVCAR-5 ovarian): 79.8 µM | GI50 (SK-MEL-2 melanoma): 51.2 µM | TGI (SK-MEL-2 melanoma): > 100 µM | GI50 (TK-10 renal): 15.9 µM | TGI (TK-10 renal): 32 µM | GI50 (UO-31 renal): 22.5 µM | TGI (UO-31 renal): 55.4 µM

CC(=O)CCn1[nH]c(=O)c(Cl)c(Cl)c1=O
TGI (CAKI-1 renal): 28.8 µM | TGI (HCC-2998 colon): > 100 µM | TGI (HOP-92 NSCLC): > 100 µM | TGI (NCI-H460 lung): > 100 µM | TGI (OVCAR-5 ovarian): > 100 µM | TGI (SK-MEL-2 melanoma): > 100 µM | TGI (TK-10 renal): > 100 µM | TGI (UO-31 renal): > 100 µM

COc1ccc2[nH]cc(C3(c4c[nH]c5ccc(OC)cc45)C(=O)Nc4ccc(Cl)cc43)c2c1
GI50 (CAKI-1 renal): 2.25 µM | TGI (CAKI-1 renal): > 100 µM | GI50 (HCC-2998 colon): 3.26 µM | TGI (HCC-2998 colon): 11.4 µM | GI50 (HOP-92 NSCLC): 2.2 µM | TGI (HOP-92 NSCLC): 10.3 µM | GI50 (NCI-H460 lung): 3.18 µM | TGI (NCI-H460 lung): 10.1 µM | GI50 (OVCAR-5 ovarian): 4.08 µM | TGI (OVCAR-5 ovarian): 43.1 µM | GI50 (PC-3 prostate): 3.96 µM | TGI (PC-3 prostate): 38.4 µM | GI50 (SK-MEL-2 melanoma): 2.9 µM | TGI (SK-MEL-2 melanoma): 6.67 µM | GI50 (UO-31 renal): 2.27 µM | TGI (UO-31 renal): > 100 µM

Cc1cc(=O)n2c(cc3cccccc32)n1
TGI (CAKI-1 renal): > 100 µM | TGI (HCC-2998 colon): > 100 µM | TGI (NCI-H460 lung): > 100 µM | TGI (NCI-H522 lung): > 100 µM | TGI (OVCAR-5 ovarian): > 100 µM | TGI (SK-MEL-2 melanoma): > 100 µM | TGI (TK-10 renal): > 100 µM | TGI (UO-31 renal): > 100 µM

CCCCCCCCC1C(C)c2c([nH]c3ccccc23)C2C(=O)N(c3ccccc3)C(=O)C21 (configuration not stated)
TGI (CAKI-1 renal): 27.5 µM | TGI (HCC-2998 colon): 25.6 µM | TGI (NCI-H460 lung): 12.9 µM | TGI (OVCAR-5 ovarian): 33.6 µM | TGI (SK-MEL-2 melanoma): 33.3 µM | TGI (TK-10 renal): 37.1 µM | TGI (UO-31 renal): 28.5 µM

O=C(CO)CC(=O)C(=O)Nc1cccc(C(F)(F)F)c1
TGI (CAKI-1 renal): > 100 µM | TGI (HCC-2998 colon): > 100 µM | TGI (HOP-92 NSCLC): > 100 µM | TGI (NCI-H460 lung): > 100 µM | TGI (NCI-H522 lung): > 100 µM | TGI (OVCAR-5 ovarian): > 100 µM | TGI (SK-MEL-2 melanoma): > 100 µM | TGI (TK-10 renal): > 100 µM | TGI (UO-31 renal): > 100 µM
